# Test results taken from article PMC12527173, “Cytotoxic, anti-inflammatory, antioxidant, and anti-glyoxalase-I evaluation of chelating substances: In silico and in vitro study” (PLOS One, 2025).
# Read-outs that look alike come from different tables or passages of the source.
# Legend:
# [1] = target: T1, human recombinant Glo-I enzyme (rhGlo-I) (Homo sapiens, UniProt Q04760); test: Glyoxalase-I (Glo-I) enzyme inhibition assay; assay type: biochemical; settings: for activity against Glo-I (in words): in vitro, compounds classed as inactive
# T1 construct: N-terminal Met and 6-His tag (N); purchased R&D Systems; host or cells: E. coli
# T1 sequence (Q04760 2-184 limits assumed): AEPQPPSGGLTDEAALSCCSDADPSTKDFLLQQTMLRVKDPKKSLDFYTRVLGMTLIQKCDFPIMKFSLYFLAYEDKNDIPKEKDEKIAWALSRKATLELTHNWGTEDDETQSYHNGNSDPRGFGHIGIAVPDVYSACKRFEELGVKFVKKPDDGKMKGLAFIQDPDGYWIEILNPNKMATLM
# Experimental: Solvents and chemicals were procured from Sigma-Aldrich Co. and Acros (ThermoFisher Scientific, New Jersey, USA). […] The enzyme was obtained from R&D Systems® Corporation in the USA. Synthetic compounds were tested for their inhibitory effects on the enzyme using a 10 mM DMSO stock concentration in triplicates. The manufacturer’s protocol from R & D Systems, Inc. in Minneapolis, MN, USA was followed for the in vitro experiments. The reconstituted Glo-I enzyme (0.5 mg/mL) was thawed after being stored at −70°C in sterile deionized water. […] The monitoring was done at a wavelength of 240 nm for 200 seconds at 37°C. The substrate mixture was freshly concocted with a concentration of 100 mM glutathione and 100 mM methylglyoxal (MG) in assay buffer containing 0.5 M sodium phosphate dibasic/monobasic. It was then left undisturbed at room temperature for 15 minutes […]. The selected compounds for investigation are subsequently produced in testing concentration ranges using a 0.1 M solution of sodium phosphate dibasic/monobasic with a pH range of 7–7.2. The blank contained an assay buffer with MG substrate. The test compounds were combined with human recombinant Glo-I (50 µM) in a 96-well plate to determine their kinetic behavior.
# [2] = SRB cytotoxicity assay, normal PDL fibroblasts; assay type: cell-based; settings: normal periodontal ligament (PDL) fibroblasts, 72 h incubation, 0.1–200 µM range, read-out: Cytotoxicity (as of %Control) IC50 value PDL fibroblasts
# Experimental: (§1) The cancer cell lines were cultured in DMEM supplemented with 10% FBS (Bio Whittaker, Verviers, Belgium), HEPES Buffer (10 mM), gentamicin (50 µg/mL), L-glutamine (100 μg/mL), streptomycin ([…]), penicillin (100 µg/mL), and 4-(2-hydroxyethyl)-1-piperazineethanesulfonic acid (HEPES) Buffer (Sigma, St. Luis, MO, USA). The Sulforhodamine B used was obtained from Santa Cruz Biotechnology, Inc. in Texas, USA. […] Periodontal ligament fibroblasts (PDL) were utilized to assess specific cytotoxicity. Cancer cell lines that have survived offer several benefits. They provide a consistent and uninterrupted source of cells, so bypassing any ethical concerns related to the use of human tissue. Additionally, they are cost-effective. The cytotoxicity levels were assessed using the Sulforhodamine B (SRB) colorimetric assay, provided by Santa Cruz Biotechnology, Inc. in Texas, USA. The Spectro Scan 80D UV-VIS spectrophotometer, manufactured by Sedico Ltd. in Nicosia, Cyprus, was employed for this cytotoxicity screening. The cells were co-incubated with substances or a reference agent at various doses ranging from 5 to 200 μg/mL. […] The reduction in cell viability was analyzed by plotting Dose-response curves and expressing the data as a percentage of the control optical density. The IC50 values were obtained using regression analysis.
# [3] = system: Breast cancer cell line MCF7; test: SRB cytotoxicity assay, MCF7; assay type: cell-based; settings: Homo sapiens, 72 h incubation, n = 12, read-out: Cytotoxicity (as of %Control) IC50 value MCF7 mammary malignancy
# Experimental: as §1
# [4] = system: HeLa uterine cervix adenocarcinoma cell line; test: SRB cytotoxicity assay, HeLa; assay type: cell-based; settings: Homo sapiens, 72 h incubation, n = 12, read-out: Cytotoxicity (as of %Control) IC50 value Hela cervix malignancy
# Experimental: as §1
# [5] = system: T47D breast cancer cell line; test: SRB cytotoxicity assay, T47D; assay type: cell-based; settings: Homo sapiens, 72 h incubation, n = 12, read-out: Cytotoxicity (as of %Control) IC50 value T47D mammary malignancy
# Experimental: as §1
# [6] = system: SW620 colorectal cancer cell line; test: SRB cytotoxicity assay, SW620; assay type: cell-based; settings: Homo sapiens, SW-620, 72 h incubation, n = 12, read-out: Cytotoxicity (as of %Control) IC50 value SW620
# Experimental: as §1
# [7] = system: HT-29 colorectal cancer cell line; test: SRB cytotoxicity assay, HT29; assay type: cell-based; settings: Homo sapiens, 72 h incubation, n = 12, read-out: Cytotoxicity (as of %Control) IC50 value HT29
# Experimental: as §1
# [8] = system: SW480 colorectal cancer cell line; test: SRB cytotoxicity assay, SW480; assay type: cell-based; settings: Homo sapiens, 72 h incubation, n = 12, read-out: Cytotoxicity (as of %Control) IC50 value SW480
# Experimental: as §1
# [9] = system: PANC1 pancreatic cell line; test: SRB cytotoxicity assay, PANC1; assay type: cell-based; settings: Homo sapiens, PANC-1, 72 h incubation, n = 12, read-out: Cytotoxicity (as of %Control) IC50 value PANC1
# Experimental: as §1
# [10] = system: CACO2 colorectal cancer cell line; test: SRB cytotoxicity assay, CACO2; assay type: cell-based; settings: Homo sapiens, Caco-2, 72 h incubation, n = 12, read-out: Cytotoxicity (as of %Control) IC50 value CACO2
# Experimental: as §1
# [11] = system: Human PC3 prostate cancer cell line; test: SRB cytotoxicity assay, PC3; assay type: cell-based; settings: 72 h incubation, n = 12, read-out: Cytotoxicity (as of %Control) IC50 value PC3 prostate malignancy
# Experimental: as §1
# [12] = system: A549 lung cancer cell line; test: SRB cytotoxicity assay, A549; assay type: cell-based; settings: Homo sapiens, 72 h incubation, n = 12, read-out: Cytotoxicity (as of %Control) IC50 value A549 lung malignancy
# Experimental: as §1
# [13] = system: A375 human skin cancer cell line; test: SRB cytotoxicity assay, A375; assay type: cell-based; settings: A-375, 72 h incubation, n = 12, read-out: Cytotoxicity (as of %Control) IC50 value A375 skin melanoma
# Experimental: as §1
# [14] = system: HCT116 colorectal cancer cell line; test: SRB cytotoxicity assay, HCT116; assay type: cell-based; settings: Homo sapiens, HCT-116, 72 h incubation, n = 12, read-out: Cytotoxicity (as of %Control) IC50 value HCT116
# Experimental: as §1
# [15] = system: LPS-primed RAW 264.7 murine macrophages (nitrite / iNOS); test: Anti-inflammatory (nitrite) determination in LPS-primed macrophages; assay type: cell-based; settings: Mus musculus, RAW264.7; LPS-primed RAW 264.7; nitrite by Griess; 24 h; n = 12; read-out: iNOS- IC50 value
# Experimental: The RAW 264.7 mouse macrophage cell line (ATCC® TIB-71) was cultivated in high glucose DMEM with 10% foetal bovine serum (FBS), 100 U/mL penicillin, 100 μg/mL streptomycin, and 100 μg/mL L-glutamate. The cells were incubated at 37°C in a humidified environment with 95% air and 5% CO2. Confluent macrophages (2 x 10^5/well) were cultured with lipopolysaccharide (LPS; 20 μg/mL; Sigma, St. Luis, MO, USA) and indomethacin (25–200 μg/mL) as the positive control, along with various concentrations (5–200 μg/mL) of treatment compounds. The cells were incubated for 24 hours. 100 μL of Griess reagent were combined with 100 μL portions of cell culture medium and left to incubate at room temperature for 10 minutes. The absorbance at a wavelength of 550 nm was measured using a microplate reader, namely the Spectro Scan 80D UV-VIS spectrophotometer manufactured by Sedico Ltd. in Nicosia, Cyprus. The nitrite concentration was assessed by comparing it to a standard curve of sodium nitrite. A cytotoxicity protocol using SRB was conducted to assess the impact of the test substances under study on RAW 264.7 viability.
# [16] = read-out: Trial one (%inhibtion)
# [17] = read-out: Trial three (%inhibtion)
# [18] = read-out: Trial two (%inhibtion)
smiles,measurement,setting,value
"O=C(/C=C/c1ccc(O)c(O)c1)O[C@@H]1[C@H](O)C[C@@](O)(C(=O)O)C[C@H]1OC(=O)/C=C/c1ccc(O)c(O)c1 [3,4-diaffeoylquinic acid]",activity against Glo-I (in words),[1],inactive
"Cc1c(O)c(=O)ccn1C [3-Hydroxy-1,2-dimethyl-4(1h)-pyridone]",activity against Glo-I (in words),[1],inactive
Oc1cc(O)c2c(c1)O[C@H](c1ccc(O)c(O)c1)[C@@H](O)C2 [(+)Catechin],activity against Glo-I (in words),[1],inactive
Oc1cc(O)c2c(c1)O[C@H](c1ccc(O)c(O)c1)[C@H](O)C2 [(-)Epicatechin],activity against Glo-I (in words),[1],inactive
"NC(CO)C(=O)NNCc1ccc(O)c(O)c1O (stereo not shown) [Benserazide, reference compound]",activity against Glo-I (in words),[1],ineffective
O=C(/C=C/c1ccc(O)c(O)c1)O[C@H]1[C@H](O)[C@@H](O)[C@H](OCCc2ccc(O)c(O)c2)O[C@@H]1CO [Calceolarioside A],IC50 at 72 h,[2],> 200 µM
same,IC50,[3],899 ± 179 µM
same,inhibition at 3.125 µM,[1]; [16],15.4%
same,inhibition at 3.125 µM,[1]; [17],6.7%
same,inhibition at 3.125 µM,[1]; [18],7.9%
same,inhibition at 6.25 µM,[1]; [16],14.4%
same,inhibition at 6.25 µM,[1]; [17],9.01%
same,inhibition at 6.25 µM,[1]; [18],9.06%
same,inhibition at 12.5 µM,[1]; [16],25.3%
same,inhibition at 12.5 µM,[1]; [17],20.9%
same,inhibition at 12.5 µM,[1]; [18],12%
same,inhibition at 25 µM,[1]; [16],35.3%
same,inhibition at 25 µM,[1]; [17],29.6%
same,inhibition at 25 µM,[1]; [18],27.5%
same,inhibition at 50 µM,[1]; [16],55.6%
same,inhibition at 50 µM,[1]; [17],56%
same,inhibition at 50 µM,[1]; [18],53.5%
same,Maximum (descriptive statistics of enzyme inhibition),"[1]; highest mean inhibition over the tested concentrations, in % (unit assumed)",55.00
same,IC50,"[1]; human recombinant Glo-I, triplicates, read-out: IC50 µM ± SD",44.3 ± 18.6 µM
same,Minimum (descriptive statistics of enzyme inhibition),"[1]; lowest mean inhibition over the tested concentrations, in % (unit assumed)",10.00
same,IC50,[4],208 ± 34.8 µM
same,IC50,[5],45.6 ± 3.46 µM
[O-][Cl+2]([O-])O [Chloric acid],activity against Glo-I (in words),[1],inactive
CC(=NO)C(C)=NO [Dimethylglyoxime],activity against Glo-I (in words),[1],inactive
"COc1cccc2c1C(=O)c1c(O)c3c(c(O)c1C2=O)C[C@@](O)(C(=O)CO)C[C@@H]3O[C@H]1C[C@H](N)[C@H](O)[C@H](C)O1 [Doxorubicin, reference compound]",IC50,[6],0.65 ± 0.03 µM
same,IC50,[7],0.006 µM
same,IC50 at 72 h,[2],> 200 µM
same,IC50,[8],0.01 µM
same,IC50,[3],4.81 ± 0.21 µM
same,IC50,[9],7.17 ± 1.07 µM
same,IC50,[10],0.92 ± 0.03 µM
same,IC50,[11],0.13 ± 0.01 µM
same,IC50,[4],5.56 ± 0.08 µM
same,IC50,[12],0.28 µM
same,IC50,[5],0.02 µM
same,IC50,[13],0.28 ± 0.14 µM
same,IC50,[14],0.92 ± 0.03 µM
"CCN(CC)C(=O)/C(C#N)=C/c1cc(O)c(O)c([N+](=O)[O-])c1 [Entacapone, reference compound]",activity against Glo-I (in words),[1],loss of activity
Oc1cc(O)c2c(c1)O[C@H](c1cc(O)c(O)c(O)c1)[C@@H](O)C2 [Gallocatechin],activity against Glo-I (in words),[1],inactive
Oc1ccc(CC2NCCc3cc(O)c(O)cc32)cc1 (stereo not shown) [Higenamine],activity against Glo-I (in words),[1],ineffective
COc1ccc2c(c1)c(CC(=O)O)c(C)n2C(=O)c1ccc(Cl)cc1 [Indomethacin],IC50,[15],0.02 µM
"O=C(CCCCCCC(=O)Nc1ccccc1)NO [SAHA, reference compound]",activity against Glo-I (in words),[1],do not demonstrate efficacy against Glo-I
COc1ccc(C[C@@H](C)[C@@H](C)Cc2ccc(OC)c(OC)c2)cc1OC [Terameprocol],activity against Glo-I (in words),[1],inactive
O=c1cccccc1O [Tropolon],activity against Glo-I (in words),[1],inactive
"CC(c1cc2ccccc2s1)N(O)C(N)=O (stereo not shown) [Zileuton, reference compound]",activity against Glo-I (in words),[1],do not demonstrate efficacy against Glo-I
"CC(=O)Nc1nnc(S(N)(=O)=O)s1 [acetazolamide, reference compound]",activity against Glo-I (in words),[1],did not exhibit any action against Glo-I
O=C(/C=C/c1ccc(O)c(O)c1)O[C@@H]1C[C@@](OC(=O)/C=C/c2ccc(O)c(O)c2)(C(=O)O)C[C@@H](O)[C@@H]1O [cynarine],activity against Glo-I (in words),[1],inactive
